Source: patent US10986838B2, “Herbicides” (SYNGENTA PARTICIPATIONS AG, priority 2016, dated 2021)

Experiments:
Assay type in all cases: in vivo
[1] = system: Abutilon theophrasti (ABUTH); experiment: Pre-emergence herbicidal activity (B1); details: Test 1b, 1000 g/ha, evaluated after 13 days, 5=total damage to plant, 0=no damage to plant
Method: (§1) B1 Pre-Emergence Herbicidal Activity Seeds of a variety of test species were sown in standard soil in pots: Triticum aestivium (TRZAW), Avena fatua (AVEFA), Alopecurus myosuroides (ALOMY), Echinochloa crus-galli (ECHCG), Lolium perenne (LOLPE), Zea Mays (ZEAMX), Abutilon theophrasti (ABUTH), Amaranthus retroflexus (AMARE) and Setaria faberi (SETFA). After cultivation for one day (pre-emergence) under controlled conditions in a glasshouse (at 24/16° C., day/night; 14 hours light; 65% humidity), the plants were sprayed with an aqueous spray solution derived from the formulation of the technical active ingredient in acetone/water (50:50) solution containing 0.5% Tween 20 (polyoxyethelyene sorbitan monolaurate, CAS RN 9005-64-5). The test plants were then grown in a glasshouse under controlled conditions (at 24/16° C., day/night; 14 hours light; 65% humidity) and watered twice daily. After 13 days, the test was evaluated (5=total damage to plant; 0=no damage to plant). Tables B1a and B1b Control of Weed Species by Compound of Formula (I) after Pre-Emergence Application

[2] = system: Amaranthus retroflexus (AMARE); experiment: Pre-emergence herbicidal activity (B1); details: Test 1b, 1000 g/ha, evaluated after 13 days, 5=total damage to plant, 0=no damage to plant
Method: as §1

[3] = system: Echinochloa crus-galli (ECHCG); experiment: Pre-emergence herbicidal activity (B1); details: Test 1b, 1000 g/ha, evaluated after 13 days, 5=total damage to plant, 0=no damage to plant
Method: as §1

[4] = system: Lolium perenne (LOLPE); experiment: Pre-emergence herbicidal activity (B1); details: Test 1b, 1000 g/ha, evaluated after 13 days, 5=total damage to plant, 0=no damage to plant
Method: as §1

[5] = system: Setaria faberi (SETFA); experiment: Pre-emergence herbicidal activity (B1); details: Test 1b, 1000 g/ha, evaluated after 13 days, 5=total damage to plant, 0=no damage to plant
Method: as §1

[6] = system: Zea Mays (ZEAMX); experiment: Pre-emergence herbicidal activity (B1); details: Test 1b, 1000 g/ha, evaluated after 13 days, 5=total damage to plant, 0=no damage to plant
Method: as §1

[7] = system: Abutilon theophrasti (ABUTH); experiment: Post-emergence herbicidal activity (B2); details: Test B2b, 1000 g/ha, evaluated after 13 days, 5=total damage to plant, 0=no damage to plant
Method: (§2) B2 Post-Emergence Herbicidal Activity Seeds of a variety of test species were sown in standard soil in pots: Triticum aestivium (TRZAW), Avena fatua (AVEFA), Alopecurus myosuroides (ALOMY), Echinochloa crus-galli (ECHCG), Lolium perenne (LOLPE), Zea Mays (ZEAMX), Abutilon theophrasti (ABUTH), Amaranthus retroflexus (AMARE) and Setaria faberi (SETFA). After 8 days cultivation (post-emergence) under controlled conditions in a glasshouse (at 24/16° C., day/night; 14 hours light; 65% humidity), the plants were sprayed with an aqueous spray solution derived from the formulation of the technical active ingredient in acetone/water (50:50) solution containing 0.5% Tween 20 (polyoxyethelyene sorbitan monolaurate, CAS RN 9005-64-5). The test plants were then grown in a glasshouse under controlled conditions (at 24/16° C., day/night; 14 hours light; 65% humidity) and watered twice daily. After 13 days, the test was evaluated (5=total damage to plant; 0=no damage to plant). Tables B2a and B2b Control of Weed Species by Compound of Formula (I) after Post-Emergence Application

[8] = system: Amaranthus retroflexus (AMARE); experiment: Post-emergence herbicidal activity (B2); details: Test B2b, 1000 g/ha, evaluated after 13 days, 5=total damage to plant, 0=no damage to plant
Method: as §2

[9] = system: Echinochloa crus-galli (ECHCG); experiment: Post-emergence herbicidal activity (B2); details: Test B2b, 1000 g/ha, evaluated after 13 days, 5=total damage to plant, 0=no damage to plant
Method: as §2

[10] = system: Lolium perenne (LOLPE); experiment: Post-emergence herbicidal activity (B2); details: Test B2b, 1000 g/ha, evaluated after 13 days, 5=total damage to plant, 0=no damage to plant
Method: as §2

[11] = system: Setaria faberi (SETFA); experiment: Post-emergence herbicidal activity (B2); details: Test B2b, 1000 g/ha, evaluated after 13 days, 5=total damage to plant, 0=no damage to plant
Method: as §2

[12] = system: Zea Mays (ZEAMX); experiment: Post-emergence herbicidal activity (B2); details: Test B2b, 1000 g/ha, evaluated after 13 days, 5=total damage to plant, 0=no damage to plant
Method: as §2

`COC(=O)C(C)Nc1ccc(-c2cncc(F)c2)nc1C(F)(F)F` (stereo not drawn) [Compound A19] gave an ABUTH damage score [1] of 0, an AMARE damage score [2] of 1 and an ECHCG damage score [3] of 3. It also gave an LOLPE damage score [4] of 2, an SETFA damage score [5] of 4 and a ZEAMX damage score [6] of 5. For the same compound, the ABUTH damage score [7] was 1, the AMARE damage score [8] was 2 and the ECHCG damage score [9] was 4. The LOLPE damage score [10] was 3, the SETFA damage score [11] was 5 and the ZEAMX damage score [12] was 5.

`CNc1ccc(-c2cncc(C(F)(F)F)c2)nc1C(F)(F)F` [Compound A7] gave an ABUTH damage score [1] of 1, an AMARE damage score [2] of 1 and an ECHCG damage score [3] of 0. For the same compound, the LOLPE damage score [4] was 0, the SETFA damage score [5] was 3 and the ZEAMX damage score [6] was 0. The ABUTH damage score [7] was 0, the AMARE damage score [8] was 1 and the ECHCG damage score [9] was 1. It also gave an LOLPE damage score [10] of 1, an SETFA damage score [11] of 3 and a ZEAMX damage score [12] of 1.

`CNc1ccc(-c2cccnc2)nc1C(F)(F)F` [Compound A11] showed an ABUTH damage score [1] of 1, an AMARE damage score [2] of 1 and an ECHCG damage score [3] of 2. For the same compound, the LOLPE damage score [4] was 1, the SETFA damage score [5] was 5 and the ZEAMX damage score [6] was 1. The ABUTH damage score [7] was 1, the AMARE damage score [8] was 1 and the ECHCG damage score [9] was 4. It also gave an LOLPE damage score [10] of 4, an SETFA damage score [11] of 5 and a ZEAMX damage score [12] of 2.

Work on `CCNc1ccc(-c2cncc(F)c2)nc1C(F)(F)F` [Compound A27] yielded an ABUTH damage score [1] of 0, an AMARE damage score [2] of 0 and an ECHCG damage score [3] of 5. For the same compound, the LOLPE damage score [4] was 2, the SETFA damage score [5] was 4 and the ZEAMX damage score [6] was 5. It also gave an ABUTH damage score [7] of 0, an AMARE damage score [8] of 0 and an ECHCG damage score [9] of 4. The LOLPE damage score [10] was 4, the SETFA damage score [11] was 5 and the ZEAMX damage score [12] was 5.

Compound `Cc1nc(-c2cccnc2)ccc1N` [Compound A36] has an ABUTH damage score [1] of 1, an AMARE damage score [2] of 1 and an ECHCG damage score [3] of 0. It also gave an LOLPE damage score [4] of 0, an SETFA damage score [5] of 1 and a ZEAMX damage score [6] of 0. It also gave an ABUTH damage score [7] of 0, an AMARE damage score [8] of 1 and an ECHCG damage score [9] of 1. For the same compound, the LOLPE damage score [10] was 1, the SETFA damage score [11] was 2 and the ZEAMX damage score [12] was 2.

With `CNc1ccc(-c2cncc(F)c2)nc1C(F)(F)F` [Compound A5] the ABUTH damage score [1] was 1, the AMARE damage score [2] was 2 and the ECHCG damage score [3] was 2. It also gave an LOLPE damage score [4] of 1, an SETFA damage score [5] of 5 and a ZEAMX damage score [6] of 4. For the same compound, the ABUTH damage score [7] was 1, the AMARE damage score [8] was 1 and the ECHCG damage score [9] was 4. The LOLPE damage score [10] was 4, the SETFA damage score [11] was 5 and the ZEAMX damage score [12] was 5.

For `Fc1ccc(CNc2ccc(-c3cncc(F)c3)nc2C(F)(F)F)cc1` [Compound A31], the ABUTH damage score [1] was 1, the AMARE damage score [2] was 1 and the ECHCG damage score [3] was 4. It also gave an LOLPE damage score [4] of 2, an SETFA damage score [5] of 5 and a ZEAMX damage score [6] of 4. For the same compound, the ABUTH damage score [7] was 0, the AMARE damage score [8] was 1 and the ECHCG damage score [9] was 4. It also gave an LOLPE damage score [10] of 3, an SETFA damage score [11] of 5 and a ZEAMX damage score [12] of 5.

Work on `COC(=O)CNc1ccc(-c2cncc(F)c2)nc1C(F)(F)F` [Compound A22] yielded an ABUTH damage score [1] of 0, an AMARE damage score [2] of 3 and an ECHCG damage score [3] of 4. The LOLPE damage score [4] was 2, the SETFA damage score [5] was 4 and the ZEAMX damage score [6] was 5. For the same compound, the ABUTH damage score [7] was 2, the AMARE damage score [8] was 3 and the ECHCG damage score [9] was 5. It also gave an LOLPE damage score [10] of 4, an SETFA damage score [11] of 5 and a ZEAMX damage score [12] of 5.
